From patent US20190315823A1, “SMALL CATIONIC ANTI-BIOFILM AND IDR PEPTIDES” (priority 2013, published 2019)
Where “and” joins values, the source holds several entries; their conditions need not be identical. Equal values may be shown once. Read-outs that look alike come from different tables or passages of the source. Ends that are not written are not given here. Peptide text beside a SMILES is read from it.

How the values were obtained:
[1] = test system: human peripheral blood mononuclear cells (MCP-1); assay: MCP-1 chemokine production by ELISA; assay type: cell-based
Method: FIG. 19. High production of anti-infective chemokine MCP-1 by human peripheral blood mononuclear cells treated with peptides, as determined by ELISA after 24 hours of stimulation.
Venous blood (20 ml) from healthy volunteers was collected in Vacutainer® collection tubes containing sodium heparin as an anticoagulant (Becton Dickinson, Mississauga, ON) in accordance with UBC ethical approval and guidelines. Blood was diluted 1:1 with complete RPMI 1640 medium and separated by centrifugation over a Ficoll-Paque® Plus (Amersham Biosciences, Piscataway, N.J., USA) density gradient. White blood cells were isolated from the buffy coat, washed twice in RPMI 1640 complete medium, and the number of peripheral blood mononuclear cells (PBMC) was determined by Trypan blue exclusion. PBMC (5×10^5) were seeded into 12-well tissue culture dishes (Falcon; Becton Dickinson) at 0.75 to 1×10^6 cells/ml at 37° C. in 5% CO2. The above conditions were chosen to mimic conditions for circulating blood monocytes entering tissues at the site of infection via extravasation.
Following incubation of the cells under various treatment regimens, the tissue culture supernatants were centrifuged at 1000×g for 5 min, then at 10,000×g for 2 min to obtain cell-free samples. Supernatants were aliquoted and then stored at −20° C. prior to assay for various chemokines by capture ELISA (eBioscience and BioSource International Inc., CA, USA respectively)

[2] = test system: Pseudomonas aeruginosa (Pa) biofilm; assay: static abiotic solid surface (microtiter, crystal violet) / Bioflux biofilm inhibition screen; assay type: cell-based
Method: FIG. 1. Identification of new anti-biofilm peptides active against P. aeruginosa using the microtiter plate screening method with crystal violet staining. […] As a control peptide 1037 was utilized [de la Fuente Nunez et al. 2011].
Methods of assessment of anti-biofilm activity—Biofilm formation was initially analyzed using a static abiotic solid surface assay as described elsewhere (de la Fuente-Nunez et al., 2012). Dilutions (1/100) of overnight cultures were incubated in BM2 biofilm-adjusted medium [62 mM potassium phosphate buffer (pH 7), 7 mM (NH4)2SO4, 2 mM MgSO4, 10 μM FeSO4, 0.4% (wt/vol) glucose, 0.5% (wt/vol) Casamino Acids], or a nutrient medium such as Luria Broth, in polypropylene microtiter plates (Falcon, United States) in the absence (control) or presence of peptide. Peptide was added at time zero (prior to adding the diluted, overnight cultures) in varying concentrations, and the decrease in biofilm formation was recorded at 22-46 h for most bacteria. Planktonic cells were removed, biofilm cells adhering to the side of the tubes were stained with crystal violet, and absorbance at 595 nm was measured using a microtiter plate reader (Bio-Tek Instruments Inc., United States). Some peptides were screened against two Gram negative organisms, P. aeruginosa and K. pneumoniae using a Bioflux apparatus (AutoMate Scientific, Berkeley, Calif.; http://www.autom8.com/bioflux_biofilm.html), which allows for the high-throughput, real-time analysis of biofilms.

A. baumannii biofilm = assay: checkerboard titration biofilm synergy (FIC); assay type: cell-based
Method: (§1) Peptides and various conventional antibiotics were analyzed by checkerboard titration into microtiter trays using CLSI methods (Wiegand, I., K. Hilpert, and R. E. W. Hancock. 2008. Nature Protocols 3:163-175), bacteria added and, after overnight incubation at 37° C., the residual biofilm assessed by the crystal violet method mentioned in the body of the grant, with an A595 of 0.2 considered as 100% biofilm inhibition. The effects of the peptide in reducing the minimal biofilm inhibitory concentration (MBIC) of the antibiotic and vice versa were assessed using the Fractional Inhibitory Concentration (FIC) method whereby ΣFTC=FICA+FICB=(CA/MICA)+(CB/MICB), where MBICA and MBICB are the MBICs of peptide A and antibiotic B alone, respectively, and CA and CB (expressed in μg/ml) are the MICs of the drugs in combination. This conventional clinical microbiology assay is interpreted as follows

Salmonella biofilm = assay: checkerboard titration biofilm synergy (FIC); assay type: cell-based
Method: as §1

K. pneumoniae biofilm = assay: checkerboard titration biofilm synergy (FIC); assay type: cell-based
Method: as §1

P. aeruginosa biofilms = conditions: P. aeruginosa biofilm
Method: as §1

S. aureus biofilms = assay: checkerboard titration biofilm synergy (MBIC, FIC); assay type: cell-based
Method: as §1

E. coli biofilms = assay: checkerboard titration biofilm synergy (MBIC, FIC); assay type: cell-based
Method: as §1

[3] = test system: human peripheral blood mononuclear cells (MCP-1); assay: SPOT-synthesized derivative screen: production of chemokine MCP-1; assay type: cell-based; conditions: Table 12A, No LPS
Method in brief: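 PBMC from heparinized healthy-donor venous blood, Ficoll-separated, cultured at 0.75 to 1×10^6 cells/ml, 37 °C, 5% CO2, under the treatment regimens. MCP-1 in cell-free supernatants measured by capture ELISA.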

[4] = test system: LPS-stimulated human peripheral blood mononuclear cells (IL1-β); assay type: cell-based; conditions: Table 12A, cells stimulated with 10 ng/ml LPS
S. aureus biofilm = assay type: cell-based; conditions: concentration that reduced biofilm growth by 50%
Method: (§2) Methods of assessment of anti-biofilm activity—Biofilm formation was initially analyzed using a static abiotic solid surface assay as described elsewhere (de la Fuente-Nunez et al., 2012). […] Planktonic cells were removed, biofilm cells adhering to the side of the tubes were stained with crystal violet, and absorbance at 595 nm was measured using a microtiter plate reader (Bio-Tek Instruments Inc., United States). Some peptides were screened against two Gram negative organisms, P. aeruginosa and K. pneumoniae using a Bioflux apparatus (AutoMate Scientific, Berkeley, Calif.; http://www.autom8.com/bioflux_biofilm.html), which allows for the high-throughput, real-time analysis of biofilms.

P. aeruginosa biofilm = assay type: cell-based; conditions: concentration that reduced biofilm growth by 50%
Method: as §2

[5] = antibiotic in combination with peptide 1018
[6] = antibiotic in combination with peptide DJK5
[7] = in combination with peptide 1018
[8] = in combination with peptide DJK5
[9] = in the presence of peptide 1018
[10] = in the presence of peptide DJK5

Compound: CC[C@H](C)[C@H](NC(=O)[C@H](Cc1c[nH]c2ccccc12)NC(=O)[C@H](CCCNC(=N)N)NC(=O)[C@@H](N)CCCNC(=N)N)C(=O)N[C@@H](CCCNC(=N)N)C(=O)N[C@H](C(=O)N[C@@H](C)C(=O)N[C@H](C(=O)N[C@H](C(=O)N[C@@H](CC(C)C)C(=O)N[C@@H](CCCNC(=N)N)C(=O)N[C@H](C(N)=O)C(C)C)[C@@H](C)CC)C(C)C)C(C)C [HE1]
- MCP-1 induction ([1]; 24 hours of stimulation, lowest peptide concentration 20 μg/ml): clearly superior to peptide 1018

Compound: VRFRIWRR (VRFRIWRR-NH2) [EH2]
- Notes (IDR immunomodulatory activity) [1]: Weaker activity than 1018

Compound: VRRIWRR (VRRIWRR-NH2) [EH1]
- Notes (IDR immunomodulatory activity) [1]: Weaker activity than 1018

Compound: VRLIRVWRVIRK (VRLIRVWRVIRK-NH2) [HE7]
- Notes (IDR immunomodulatory activity) [1]: No secretion of MCP-1

Compound: CC[C@H](C)[C@H](NC(=O)[C@H](CC(C)C)NC(=O)[C@@H]1CCCN1C(=O)[C@H](CCCCN)NC(=O)[C@H](C)NC(=O)[C@@H](NC(=O)[C@@H](NC(=O)[C@@H](NC(=O)[C@@H](NC(=O)[C@H](CCCCN)NC(=O)[C@H](CCCCN)NC(=O)[C@H](C)NC(=O)[C@H](C)NC(=O)[C@H](CO)NC(=O)[C@@H](NC(=O)[C@H](CC(C)C)NC(=O)[C@H](CCCCN)NC(=O)[C@H](CCCCN)NC(=O)[C@@H](NC(=O)[C@H](Cc1ccccc1)NC(=O)[C@H](CO)NC(=O)[C@H](CCCCN)NC(=O)[C@H](Cc1c[nH]c2ccccc12)NC(=O)[C@@H](N)CCCCN)[C@@H](C)CC)[C@@H](C)O)C(C)C)C(C)C)[C@@H](C)O)[C@@H](C)O)C(=O)N[C@@H](CO)C(=O)N[C@@H](CO)C(N)=O [CP26] (H-KWKSFIKKLTSAAKKVVTTAKPLISS-NH2; N-terminus assumed)
- % Biofilm Inhibition Pa ([2]; peptide 10 μg/ml): 62%

Compound: CC(C)(O/N=C(\C(=O)N[C@@H]1C(=O)N2C(C(=O)[O-])=C(C[n+]3ccccc3)CS[C@H]12)c1csc(N)n1)C(=O)O [Ceftazidime]
- FIC (A. baumannii biofilm; [5]): 0.37
- FIC (A. baumannii biofilm; [6]): 0.75
- Fold decrease in antibiotic MIC in the presence of peptide (A. baumannii biofilm; peptide DJK5): 2X
- FIC (Salmonella biofilm; [5]): 0.31
- FIC (Salmonella biofilm; [6]): 0.75
- Fold decrease in antibiotic MIC in the presence of peptide (Salmonella biofilm; peptide DJK5): 4X
- FIC (K. pneumoniae biofilm; [5]): 0.75
- FIC (K. pneumoniae biofilm; [6]): 0.89
- Fold decrease in antibiotic MIC in the presence of peptide (K. pneumoniae biofilm; peptide DJK5): 16X
- FIC (P. aeruginosa biofilms; [5]): 0.38
- FIC (P. aeruginosa biofilms; [6]): 0.51 and 0.5
- Concentration of antibiotic at the FIC (P. aeruginosa biofilms; [7]): 1.4 µg/mL
- Concentration of antibiotic at the FIC (P. aeruginosa biofilms; [8]): 0.8 µg/mL
- FIC (S. aureus biofilms; [5]): 0.16
- FIC (S. aureus biofilms; [6]): 0.375 and 0.38
- FIC (S. aureus biofilms; antibiotic in combination with peptide DJK6): 0.4
- MBIC (S. aureus biofilms; compound alone): 256 µg/mL
- concentration of antibiotic at FIC (S. aureus biofilms; [7]): 8-8 μg/ml
- concentration of antibiotic at FIC (S. aureus biofilms; [8]): 32 µg/mL
- Fold decrease in antibiotic concentration (S. aureus biofilms; [9]): 32X
- Fold decrease in antibiotic concentration / antibiotic MIC (S. aureus biofilms; [10]): 8X
- Fold decrease in antibiotic concentration (S. aureus biofilms; in the presence of peptide DJK6): 8
- FIC (E. coli biofilms; [5]): 1
- FIC (E. coli biofilms; [6]): 0.542 and 0.54
- MBIC (E. coli biofilms; compound alone): 0.4 µg/mL
- concentration of antibiotic at FIC (E. coli biofilms; [7]): 0.1 µg/mL
- concentration of antibiotic at FIC (E. coli biofilms; [8]): 0.2 µg/mL
- Fold decrease in antibiotic concentration (E. coli biofilms; [9]): 4X
- Fold decrease in antibiotic concentration / antibiotic MIC (E. coli biofilms; [10]): 2X

Compound: CC[C@H](C)[C@H](NC(=O)[C@H](C)N)C(=O)N[C@@H](CCCNC(=N)N)C(=O)N[C@H](C(=O)N[C@H](C(=O)N[C@@H](CCCNC(=N)N)C(=O)N[C@@H](C)C(=O)N[C@@H](CCCNC(=N)N)C(=O)N[C@@H](CC(C)C)C(=O)N[C@H](C(=O)N[C@@H](CCCNC(=N)N)C(=O)N[C@@H](CCCNC(=N)N)C(N)=O)C(C)C)C(C)C)C(C)C [Peptide 1009] (H-AIRVVRARLVRR-NH2; N-terminus assumed)
- % Biofilm Inhibition Pa ([2]; Pa) biofilm, 10 μg/ml): 54%

Compound: CC[C@H](C)[C@H](NC(=O)[C@H](CCCNC(=N)N)NC(=O)[C@H](C)NC(=O)[C@@H](NC(=O)[C@H](CCCNC(=N)N)NC(=O)[C@H](C)NC(=O)[C@H](Cc1c[nH]c2ccccc12)NC(=O)[C@H](CCCNC(=N)N)NC(=O)[C@@H](N)C(C)C)C(C)C)C(=O)N[C@@H](CC(C)C)C(=O)N[C@@H](CCCNC(=N)N)C(=O)N[C@H](C(N)=O)C(C)C [HE3] (H-VRWARVARILRV-NH2; N-terminus assumed)
- Notes (IDR immunomodulatory activity) [1]: Weaker activity than 1018

Compound: RVLIRVARRVIW (RVLIRVARRVIW-NH2) [HE9]
- Notes (IDR immunomodulatory activity) [1]: Weaker activity than 1018

Compound: N=C(N)NCCC[C@H](NC(=O)[C@H](CCCNC(=N)N)NC(=O)[C@H](Cc1c[nH]c2ccccc12)NC(=O)[C@H](Cc1c[nH]c2ccccc12)NC(=O)[C@H](CCCCN)NC(=O)[C@H](Cc1c[nH]c2ccccc12)NC(=O)[C@H](Cc1c[nH]c2ccccc12)NC(=O)[C@H](CCCNC(=N)N)NC(=O)[C@@H](N)CCCCN)C(N)=O [HHC36, reference compound] (H-KRWWKWWRR-NH2; N-terminus assumed)
- activity vs. biofilms ([2]; statement referring to Table 2): completely inactive

Compound: CC[C@H](C)[C@H](NC(=O)[C@H](CCCNC(=N)N)NC(=O)[C@H](C)NC(=O)[C@H](CC(C)C)NC(=O)[C@@H](N)CCCNC(=N)N)C(=O)N[C@H](C(=O)N[C@H](C(=O)N[C@H](C(=O)N[C@@H](CCCNC(=N)N)C(=O)N[C@H](C(=O)N[C@@H](CCCNC(=N)N)C(=O)N[C@@H](CCCNC(=N)N)C(N)=O)C(C)C)[C@@H](C)CC)C(C)C)C(C)C [Peptide E3] (H-RLARIVVIRVRR-NH2; N-terminus assumed)
- % Biofilm Inhibition Pa ([2]; Pa) biofilm, 10 μg/ml): 47%

Compound: CC[C@H](C)[C@H](NC(=O)[C@H](CCCNC(=N)N)NC(=O)[C@@H](NC(=O)[C@H](CCCCN)NC(=O)[C@@H](NC(=O)[C@@H](NC(=O)[C@H](CC(C)C)NC(=O)[C@H](CCCNC(=N)N)NC(=O)[C@@H](N)C(C)C)[C@@H](C)CC)C(C)C)C(C)C)C(=O)N[C@@H](CCCNC(=N)N)C(=O)N[C@@H](CCCNC(=N)N)C(=O)N[C@@H](CCCNC(=N)N)C(N)=O [Peptide 2003] (H-VRLIVKVRIRRR-NH2; N-terminus assumed)
- Fold increase in MCP1 cf. untreated cells [3]: 509
- MCP1 ([3]; background subtracted (21.3 pg/ml)): 10848 pg/mL
- Fold change in IL1β relative to no peptide LPS stimulated cells ([4]; 1002-2013 compared to LPS control of 889 pg/ml): 1.07
- IL1β Production ([4]; LPS alone 984 pg/ml, starred values (1002-2013) determined separately, LPS alone 889 pg/ml): 1051 pg/mL
- MBIC50 S. aureus (S. aureus biofilm): 20 µg/mL
- MBIC50 P. aeruginosa (P. aeruginosa biofilm): 2.5 µg/mL
